Assay results as given in PubChem BioAssay AID212 (DTP/NCI, 2004).
“And” between values parts separate entries of the source, which are not always exact repeats. Equal entries are not always repeated. Inconclusive results are not listed.

Test system: BDF1 mice, colon carcinoma 38 sc, T/C %
Assay: NCI In Vivo Anticancer Drug Screen. Data for tumor model Colon Carcinoma 38 (subcutaneous) in B6D2F1 (BDF1) mice
Summary of the method: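 Ratio of survival or tumor size, compound-treated animals relative to vehicle controls, in tumor-bearing mice.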

SMILES: O=S(=O)(O)O.[NH-]C1CCCCC1[NH-].[Pt+2] (configuration not stated)
- T/C (endpoint: median tumor weight (est.), dose: 0.31 mg/kg/injection, schedule: Q07DX002 (ip), vehicle: dextrose, higher = larger tumour): 56 % of control
- T/C (endpoint: median tumor weight (est.), dose: 0.62 mg/kg/injection, schedule: Q07DX002 (ip), vehicle: dextrose, higher = larger tumour): 82 % of control
- T/C (endpoint: median tumor weight (est.), dose: 0.63 mg/kg/injection, schedule: Q07DX002 (ip), vehicle: dextrose, higher = larger tumour): 80 % of control
- T/C (endpoint: median tumor weight (est.), dose: 0.63 mg/kg/injection, schedule: Q07DX003 (ip), vehicle: dextrose, higher = larger tumour): 51 % of control
- T/C (endpoint: median tumor weight (est.), dose: 1.25 mg/kg/injection, schedule: Q07DX002 (ip), vehicle: dextrose, higher = larger tumour): 41 % of control
- T/C (endpoint: median tumor weight (est.), dose: 1.25 mg/kg/injection, schedule: Q07DX003 (ip), vehicle: dextrose, higher = larger tumour): 76 % of control
- T/C (endpoint: median tumor weight (est.), dose: 2.5 mg/kg/injection, schedule: Q07DX002 (ip), vehicle: dextrose, higher = larger tumour): 19 % of control and 36 % of control
- T/C (endpoint: median tumor weight (est.), dose: 5.0 mg/kg/injection, schedule: Q07DX002 (ip), vehicle: dextrose, higher = larger tumour): 21 % of control
- T/C (endpoint: median tumor weight (est.), dose: 5.0 mg/kg/injection, schedule: Q07DX003 (ip), vehicle: dextrose, higher = larger tumour): 29 % of control
- T/C (endpoint: median tumor weight (est.), dose: 10.0 mg/kg/injection, schedule: Q07DX002 (ip), vehicle: dextrose, higher = larger tumour): 9 % of control

SMILES: COc1cc2c(c(OC)c1OC)-c1c(cc3c(c1OC)OCO3)CC(C)C(C)(O)C2OC(=O)c1ccccc1 (configuration not stated)
- T/C (endpoint: median tumor weight (est.), dose: 50.0 mg/kg/injection, schedule: Q07DX002 (ip), vehicle: saline + Tween-80 + alcohol, higher = larger tumour): 165 % of control
- T/C (endpoint: median tumor weight (est.), dose: 100.0 mg/kg/injection, schedule: Q07DX002 (ip), vehicle: saline + Tween-80 + alcohol, higher = larger tumour): 103 % of control
- T/C (endpoint: median tumor weight (est.), dose: 200.0 mg/kg/injection, schedule: Q07DX002 (ip), vehicle: saline + Tween-80 + alcohol, higher = larger tumour): 106 % of control
- T/C (endpoint: median tumor weight (est.), dose: 400.0 mg/kg/injection, schedule: Q07DX002 (ip), vehicle: saline + Tween-80 + alcohol, higher = larger tumour): 211 % of control
- T/C (endpoint: median tumor weight (est.), dose: 800.0 mg/kg/injection, schedule: Q07DX002 (ip), vehicle: saline + Tween-80 + alcohol, higher = larger tumour): 111 % of control

SMILES: CC/C(=C(/CC)c1ccc(O)cc1)c1ccc(O)cc1
- T/C (endpoint: median tumor weight (est.), dose: 12.5 mg/kg/injection, schedule: Q07DX003 (ip), vehicle: saline with Tween-80, higher = larger tumour): 96 % of control
- T/C (endpoint: median tumor weight (est.), dose: 25.0 mg/kg/injection, schedule: Q07DX003 (ip), vehicle: saline with Tween-80, higher = larger tumour): 153 % of control
- T/C (endpoint: median tumor weight (est.), dose: 100.0 mg/kg/injection, schedule: Q07DX003 (ip), vehicle: saline with Tween-80, higher = larger tumour): 76 % of control
- T/C (endpoint: median tumor weight (est.), dose: 200.0 mg/kg/injection, schedule: Q07DX003 (ip), vehicle: saline with Tween-80, higher = larger tumour): 179 % of control

SMILES: COc1cccc2c1C(=O)c1c(O)c3c(c(O)c1C2=O)CC(O)(/C(C)=N/NC(=O)CCC(=O)N/N=C(\C)C1(O)Cc2c(O)c4c(c(O)c2C(OC2CC(N)C(O)C(C)O2)C1)C(=O)c1c(OC)cccc1C4=O)CC3OC1CC(N)C(O)C(C)O1 (configuration not stated)
- T/C (endpoint: median survival time, dose: 28.0 mg/kg/injection, schedule: Q07DX003 (sc), vehicle: water, higher = longer survival): 107 % of control
- T/C (endpoint: median survival time, dose: 73.0 mg/kg/injection, schedule: Q07DX003 (sc), vehicle: water, higher = longer survival): 100 % of control
- T/C (endpoint: median survival time, dose: 118.0 mg/kg/injection, schedule: Q07DX003 (sc), vehicle: water, higher = longer survival): 175 % of control
- T/C (endpoint: median tumor weight (est.), dose: 4.0 mg/kg/injection, schedule: Q07DX002 (ip), vehicle: distilled water + Tween-80, higher = larger tumour): 97 % of control
- T/C (endpoint: median tumor weight (est.), dose: 8.0 mg/kg/injection, schedule: Q07DX002 (ip), vehicle: distilled water + Tween-80, higher = larger tumour): 90 % of control
- T/C (endpoint: median tumor weight (est.), dose: 8.0 mg/kg/injection, schedule: Q07DX002 (ip), vehicle: water, higher = larger tumour): 104 % of control
- T/C (endpoint: median tumor weight (est.), dose: 9.48 mg/kg/injection, schedule: Q07DX002 (ip), vehicle: water, higher = larger tumour): 9 % of control
- T/C (endpoint: median tumor weight (est.), dose: 14.2 mg/kg/injection, schedule: Q07DX002 (ip), vehicle: water, higher = larger tumour): 2 % of control
- T/C (endpoint: median tumor weight (est.), dose: 16.0 mg/kg/injection, schedule: Q07DX002 (ip), vehicle: distilled water + Tween-80, higher = larger tumour): 69 % of control
- T/C (endpoint: median tumor weight (est.), dose: 16.0 mg/kg/injection, schedule: Q07DX002 (ip), vehicle: water, higher = larger tumour): 90 % of control
- T/C (endpoint: median tumor weight (est.), dose: 32.0 mg/kg/injection, schedule: Q07DX002 (ip), vehicle: distilled water + Tween-80, higher = larger tumour): 59 % of control
- T/C (endpoint: median tumor weight (est.), dose: 32.0 mg/kg/injection, schedule: Q07DX002 (ip), vehicle: water, higher = larger tumour): 54 % of control
- T/C (endpoint: median tumor weight (est.), dose: 64.0 mg/kg/injection, schedule: Q07DX002 (ip), vehicle: distilled water + Tween-80, higher = larger tumour): 4 % of control
